{
  "source": "paper PMC11233931",
  "about": "“Remodeling tumor‐associated macrophage for anti‐cancer effects by rational design of irreversible inhibition of mitogen‐activated protein kinase‐activated protein kinase 2” (MedComm, 2024)",
  "experiment_in_all_cases": "Eurofins kinase selectivity profile against 380 other human recombinant kinases (Table S2)",
  "type_in_all_cases": "biochemical",
  "key": {"[1]": {"target": "T1, 380 human recombinant protein kinases (Homo sapiens, UniProt Q9NYY3)", "T1 construct": "purchased Eurofins (Celle Lévescault)", "T1 sequence (Q9NYY3 whole entry)": "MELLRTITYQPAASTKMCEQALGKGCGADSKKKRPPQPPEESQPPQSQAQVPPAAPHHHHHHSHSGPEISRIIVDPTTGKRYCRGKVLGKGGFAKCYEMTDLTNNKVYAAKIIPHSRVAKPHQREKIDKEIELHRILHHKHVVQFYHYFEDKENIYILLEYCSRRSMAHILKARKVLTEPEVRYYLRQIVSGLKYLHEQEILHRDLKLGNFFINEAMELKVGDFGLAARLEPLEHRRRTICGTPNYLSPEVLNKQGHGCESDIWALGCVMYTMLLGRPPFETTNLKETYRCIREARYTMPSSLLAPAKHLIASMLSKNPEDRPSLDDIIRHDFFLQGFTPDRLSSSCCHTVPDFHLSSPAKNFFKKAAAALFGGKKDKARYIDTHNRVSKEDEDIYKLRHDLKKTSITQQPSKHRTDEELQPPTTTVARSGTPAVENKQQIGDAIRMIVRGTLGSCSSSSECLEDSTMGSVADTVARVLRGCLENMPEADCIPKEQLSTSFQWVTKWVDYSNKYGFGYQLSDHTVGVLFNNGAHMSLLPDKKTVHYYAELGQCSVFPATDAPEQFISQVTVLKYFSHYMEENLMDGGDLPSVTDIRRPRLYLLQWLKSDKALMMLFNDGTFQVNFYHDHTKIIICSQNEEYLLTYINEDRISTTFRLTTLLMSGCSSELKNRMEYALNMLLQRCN", "details": "Snk(h), read-out: Inhibition rate (%)", "in_short": "(§1)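 Commercial selectivity screen of the test compound against a panel of 380 human recombinant protein kinases, run by an outside contractor at several compound concentrations to check whether its potency was specific for MK2.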"}, "[2]": {"target": "T2, 380 human recombinant protein kinases (Homo sapiens, UniProt O00418)", "T2 construct": "purchased Eurofins (Celle Lévescault)", "T2 sequence (O00418 1-725)": "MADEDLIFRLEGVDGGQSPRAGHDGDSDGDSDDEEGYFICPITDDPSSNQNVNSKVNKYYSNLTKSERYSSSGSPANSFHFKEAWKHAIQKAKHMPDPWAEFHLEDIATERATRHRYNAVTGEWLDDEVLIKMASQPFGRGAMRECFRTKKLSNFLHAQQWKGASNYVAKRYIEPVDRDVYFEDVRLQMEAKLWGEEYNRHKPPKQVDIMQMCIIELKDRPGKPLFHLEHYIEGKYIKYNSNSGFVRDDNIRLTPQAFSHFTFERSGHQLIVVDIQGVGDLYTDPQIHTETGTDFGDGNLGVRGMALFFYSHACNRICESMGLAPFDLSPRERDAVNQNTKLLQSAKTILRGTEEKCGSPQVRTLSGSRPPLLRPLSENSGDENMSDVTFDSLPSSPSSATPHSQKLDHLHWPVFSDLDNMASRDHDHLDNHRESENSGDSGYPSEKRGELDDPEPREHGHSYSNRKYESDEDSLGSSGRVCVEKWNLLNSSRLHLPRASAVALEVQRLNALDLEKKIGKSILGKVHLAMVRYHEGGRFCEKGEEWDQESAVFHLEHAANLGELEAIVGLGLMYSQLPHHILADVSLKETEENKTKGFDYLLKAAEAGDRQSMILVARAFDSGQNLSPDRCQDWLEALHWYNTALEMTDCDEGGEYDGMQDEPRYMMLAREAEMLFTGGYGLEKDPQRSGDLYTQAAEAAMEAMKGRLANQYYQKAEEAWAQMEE", "details": "eEF-2K(h), read-out: Inhibition rate", "in_short": "as §1"}, "[3]": {"target": "T3, 380 human recombinant protein kinases (Homo sapiens, UniProt Q13523)", "T3 construct": "purchased Eurofins (Celle Lévescault)", "T3 sequence (Q13523 whole entry)": "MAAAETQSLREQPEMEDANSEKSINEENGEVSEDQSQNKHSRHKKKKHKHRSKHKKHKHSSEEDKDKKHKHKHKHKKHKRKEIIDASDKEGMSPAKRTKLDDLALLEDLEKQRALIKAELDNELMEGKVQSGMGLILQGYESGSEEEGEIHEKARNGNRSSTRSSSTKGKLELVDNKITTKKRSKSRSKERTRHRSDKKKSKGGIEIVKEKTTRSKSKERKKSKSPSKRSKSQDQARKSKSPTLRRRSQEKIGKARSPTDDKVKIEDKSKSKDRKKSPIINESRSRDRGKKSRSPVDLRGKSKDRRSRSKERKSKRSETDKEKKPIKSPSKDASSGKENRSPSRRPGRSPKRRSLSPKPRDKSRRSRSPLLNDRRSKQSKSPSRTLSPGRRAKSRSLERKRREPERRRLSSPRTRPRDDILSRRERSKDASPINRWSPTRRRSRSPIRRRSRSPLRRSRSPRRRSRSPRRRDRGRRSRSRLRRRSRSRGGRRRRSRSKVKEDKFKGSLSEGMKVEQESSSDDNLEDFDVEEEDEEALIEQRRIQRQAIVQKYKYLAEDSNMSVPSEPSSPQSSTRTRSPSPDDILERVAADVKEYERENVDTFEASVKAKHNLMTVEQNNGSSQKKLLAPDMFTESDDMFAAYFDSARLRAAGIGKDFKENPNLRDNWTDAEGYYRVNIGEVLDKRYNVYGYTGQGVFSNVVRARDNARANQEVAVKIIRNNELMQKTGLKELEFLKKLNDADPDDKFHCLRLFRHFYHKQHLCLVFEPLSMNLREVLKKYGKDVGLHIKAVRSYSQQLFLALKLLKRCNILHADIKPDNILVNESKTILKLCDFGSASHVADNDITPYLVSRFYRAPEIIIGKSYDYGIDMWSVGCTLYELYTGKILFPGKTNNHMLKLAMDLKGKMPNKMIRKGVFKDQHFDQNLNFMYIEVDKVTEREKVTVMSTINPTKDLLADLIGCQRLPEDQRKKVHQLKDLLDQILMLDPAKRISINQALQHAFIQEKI", "details": "PRP4(h), read-out: Inhibition rate", "in_short": "as §1"}, "[4]": {"target": "T4, 380 human recombinant protein kinases (Homo sapiens, UniProt Q96BR1)", "T4 construct": "purchased Eurofins (Celle Lévescault)", "T4 sequence (Q96BR1 1-496)": "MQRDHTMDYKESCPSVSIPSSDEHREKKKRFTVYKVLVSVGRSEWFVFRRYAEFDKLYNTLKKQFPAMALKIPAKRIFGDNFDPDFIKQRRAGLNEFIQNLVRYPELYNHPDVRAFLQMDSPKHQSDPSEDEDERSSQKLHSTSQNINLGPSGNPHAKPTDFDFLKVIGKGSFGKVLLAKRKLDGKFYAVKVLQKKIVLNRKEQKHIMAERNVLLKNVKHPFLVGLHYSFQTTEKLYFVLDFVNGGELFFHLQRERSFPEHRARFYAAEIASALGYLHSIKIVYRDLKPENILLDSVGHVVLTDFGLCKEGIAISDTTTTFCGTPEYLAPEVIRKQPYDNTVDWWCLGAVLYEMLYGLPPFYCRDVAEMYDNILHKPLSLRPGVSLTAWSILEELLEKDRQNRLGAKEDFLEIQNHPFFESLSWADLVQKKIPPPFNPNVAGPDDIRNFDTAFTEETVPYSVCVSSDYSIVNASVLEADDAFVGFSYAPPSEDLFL", "details": "SGK3(h), read-out: Inhibition rate (%)", "in_short": "as §1"}, "[5]": {"target": "T5, 380 human recombinant protein kinases (Homo sapiens, UniProt Q9BQI3)", "T5 construct": "purchased Eurofins (Celle Lévescault)", "T5 sequence (Q9BQI3 whole entry)": "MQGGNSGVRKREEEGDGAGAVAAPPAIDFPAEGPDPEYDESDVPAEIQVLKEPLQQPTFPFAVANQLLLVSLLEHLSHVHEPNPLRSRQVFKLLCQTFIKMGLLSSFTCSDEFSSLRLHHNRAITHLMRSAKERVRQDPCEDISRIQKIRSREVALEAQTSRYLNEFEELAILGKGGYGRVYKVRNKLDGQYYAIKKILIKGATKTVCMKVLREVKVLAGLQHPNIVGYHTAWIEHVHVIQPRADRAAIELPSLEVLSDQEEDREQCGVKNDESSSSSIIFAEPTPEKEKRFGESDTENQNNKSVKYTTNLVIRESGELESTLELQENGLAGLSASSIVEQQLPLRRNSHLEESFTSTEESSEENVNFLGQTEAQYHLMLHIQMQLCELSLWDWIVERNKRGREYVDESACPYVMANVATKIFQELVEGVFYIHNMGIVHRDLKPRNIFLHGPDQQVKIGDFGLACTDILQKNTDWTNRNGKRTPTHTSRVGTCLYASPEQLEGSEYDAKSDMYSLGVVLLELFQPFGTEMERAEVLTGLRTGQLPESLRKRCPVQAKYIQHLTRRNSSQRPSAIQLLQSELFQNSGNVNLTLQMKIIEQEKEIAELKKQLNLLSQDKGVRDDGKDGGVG", "details": "HRI(h), read-out: Inhibition rate", "in_short": "as §1"}, "[6]": {"target": "T6, 380 human recombinant protein kinases (Homo sapiens, UniProt O95747)", "T6 construct": "purchased Eurofins (Celle Lévescault)", "T6 sequence (O95747 whole entry)": "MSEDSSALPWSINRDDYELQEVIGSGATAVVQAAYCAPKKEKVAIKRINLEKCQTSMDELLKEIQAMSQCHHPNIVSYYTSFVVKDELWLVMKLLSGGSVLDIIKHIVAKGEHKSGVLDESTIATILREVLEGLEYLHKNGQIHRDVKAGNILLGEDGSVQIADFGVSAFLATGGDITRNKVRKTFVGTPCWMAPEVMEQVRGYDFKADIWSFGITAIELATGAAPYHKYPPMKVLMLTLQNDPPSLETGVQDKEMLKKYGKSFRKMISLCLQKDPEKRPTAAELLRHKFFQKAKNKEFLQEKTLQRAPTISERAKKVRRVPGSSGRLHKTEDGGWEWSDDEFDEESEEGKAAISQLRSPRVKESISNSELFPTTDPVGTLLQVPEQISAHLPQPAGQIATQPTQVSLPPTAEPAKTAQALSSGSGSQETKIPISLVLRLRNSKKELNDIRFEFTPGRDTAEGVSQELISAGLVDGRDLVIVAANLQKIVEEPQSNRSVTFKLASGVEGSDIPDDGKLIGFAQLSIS", "details": "OSR1(h), read-out: Inhibition rate", "in_short": "as §1"}, "[7]": {"target": "T7, 380 human recombinant protein kinases (Homo sapiens, UniProt Q9P1W9)", "T7 construct": "purchased Eurofins (Celle Lévescault)", "T7 sequence (Q9P1W9 whole entry)": "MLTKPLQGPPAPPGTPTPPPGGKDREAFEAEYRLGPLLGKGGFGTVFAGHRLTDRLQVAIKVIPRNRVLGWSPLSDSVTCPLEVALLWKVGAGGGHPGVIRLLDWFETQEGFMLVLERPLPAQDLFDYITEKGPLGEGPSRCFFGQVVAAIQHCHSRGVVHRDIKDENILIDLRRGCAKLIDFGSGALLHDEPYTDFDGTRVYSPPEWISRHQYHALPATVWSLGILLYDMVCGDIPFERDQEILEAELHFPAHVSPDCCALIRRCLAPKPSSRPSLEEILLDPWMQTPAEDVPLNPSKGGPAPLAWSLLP", "details": "Pim-2(h), read-out: Inhibition rate", "in_short": "as §1"}, "[8]": {"target": "T8, 380 human recombinant protein kinases (Homo sapiens, UniProt Q13188)", "T8 construct": "purchased Eurofins (Celle Lévescault)", "T8 sequence (Q13188 1-491)": "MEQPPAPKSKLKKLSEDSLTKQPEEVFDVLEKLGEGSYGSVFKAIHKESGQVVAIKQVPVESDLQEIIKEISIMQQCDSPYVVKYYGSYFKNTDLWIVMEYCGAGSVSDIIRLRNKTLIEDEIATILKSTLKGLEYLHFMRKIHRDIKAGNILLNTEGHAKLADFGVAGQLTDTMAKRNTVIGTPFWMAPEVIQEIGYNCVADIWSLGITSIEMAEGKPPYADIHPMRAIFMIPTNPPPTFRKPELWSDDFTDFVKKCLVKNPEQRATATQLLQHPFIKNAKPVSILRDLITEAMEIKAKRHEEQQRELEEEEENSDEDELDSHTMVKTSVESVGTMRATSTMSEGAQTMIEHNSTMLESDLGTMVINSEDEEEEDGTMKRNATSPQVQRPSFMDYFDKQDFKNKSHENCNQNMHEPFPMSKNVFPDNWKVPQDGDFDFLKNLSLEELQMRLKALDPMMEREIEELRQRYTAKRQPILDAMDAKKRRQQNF", "details": "MST2(h), read-out: Inhibition rate", "in_short": "as §1"}, "[9]": {"target": "T9, 380 human recombinant protein kinases (Homo sapiens, UniProt P57059)", "T9 construct": "purchased Eurofins (Celle Lévescault)", "T9 sequence (P57059 whole entry)": "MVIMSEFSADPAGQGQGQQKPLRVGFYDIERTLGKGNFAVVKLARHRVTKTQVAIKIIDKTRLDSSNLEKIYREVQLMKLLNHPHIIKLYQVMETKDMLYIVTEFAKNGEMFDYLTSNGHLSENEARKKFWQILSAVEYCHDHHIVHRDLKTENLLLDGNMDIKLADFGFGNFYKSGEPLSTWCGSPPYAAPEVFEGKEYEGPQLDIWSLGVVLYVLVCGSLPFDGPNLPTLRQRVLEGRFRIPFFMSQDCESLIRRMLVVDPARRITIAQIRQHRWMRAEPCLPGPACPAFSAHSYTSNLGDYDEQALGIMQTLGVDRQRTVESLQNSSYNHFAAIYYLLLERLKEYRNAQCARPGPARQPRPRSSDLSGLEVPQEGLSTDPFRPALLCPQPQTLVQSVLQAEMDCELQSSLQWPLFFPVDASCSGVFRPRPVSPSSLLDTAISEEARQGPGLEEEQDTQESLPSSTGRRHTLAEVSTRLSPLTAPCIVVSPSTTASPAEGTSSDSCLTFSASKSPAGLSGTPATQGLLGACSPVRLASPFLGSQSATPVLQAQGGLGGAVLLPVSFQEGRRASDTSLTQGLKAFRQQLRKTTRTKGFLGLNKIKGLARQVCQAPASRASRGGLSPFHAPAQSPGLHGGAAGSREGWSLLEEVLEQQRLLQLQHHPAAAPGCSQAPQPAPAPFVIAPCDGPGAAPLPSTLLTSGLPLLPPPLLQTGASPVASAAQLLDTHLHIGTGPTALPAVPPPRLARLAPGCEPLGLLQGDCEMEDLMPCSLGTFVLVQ", "details": "SIK(h), read-out: Inhibition rate (%)", "in_short": "as §1"}},
  "data": [
    {"smiles": "C=CC(=O)Nc1cc(-c2cc(-c3cc4c([nH]3)CCNC4=O)ccn2)ccc1OC(F)(F)F", "note": "[compound 11]", "values": [
      {"measurement": "inhibition at 0.01 µM", "setting": "[1]; 10 nM", "result": 0, "unit": "%"},
      {"measurement": "inhibition at 0.1 µM", "setting": "[1]; 100 nM", "result": 10, "unit": "%"},
      {"measurement": "inhibition at 1 µM", "setting": "[1]; 1000 nM", "result": 15, "unit": "%"},
      {"measurement": "inhibition at 0.01 µM", "setting": "[2]; 10 nM", "result": -4, "unit": "%"},
      {"measurement": "inhibition at 0.1 µM", "setting": "[2]; 100 nM", "result": -10, "unit": "%"},
      {"measurement": "inhibition at 1 µM", "setting": "[2]; 1000 nM", "result": -27, "unit": "%"},
      {"measurement": "inhibition at 0.01 µM", "setting": "[3]; 10 nM", "result": -1, "unit": "%"},
      {"measurement": "inhibition at 0.1 µM", "setting": "[3]; 100 nM", "result": -3, "unit": "%"},
      {"measurement": "inhibition at 1 µM", "setting": "[3]; 1000 nM", "result": 12, "unit": "%"},
      {"measurement": "inhibition at 0.01 µM", "setting": "[4]; 10 nM", "result": -8, "unit": "%"},
      {"measurement": "inhibition at 0.1 µM", "setting": "[4]; 100 nM", "result": 2, "unit": "%"},
      {"measurement": "inhibition at 1 µM", "setting": "[4]; 1000 nM", "result": -4, "unit": "%"},
      {"measurement": "inhibition at 0.01 µM", "setting": "[5]; 10 nM", "result": -3, "unit": "%"},
      {"measurement": "inhibition at 0.1 µM", "setting": "[5]; 100 nM", "result": 4, "unit": "%"},
      {"measurement": "inhibition at 1 µM", "setting": "[5]; 1000 nM", "result": 7, "unit": "%"},
      {"measurement": "inhibition at 0.01 µM", "setting": "[6]; 10 nM", "result": -1, "unit": "%"},
      {"measurement": "inhibition at 0.1 µM", "setting": "[6]; 100 nM", "result": 5, "unit": "%"},
      {"measurement": "inhibition at 1 µM", "setting": "[6]; 1000 nM", "result": 11, "unit": "%"},
      {"measurement": "inhibition at 0.01 µM", "setting": "[7]; 10 nM", "result": -3, "unit": "%"},
      {"measurement": "inhibition at 0.1 µM", "setting": "[7]; 100 nM", "result": 5, "unit": "%"},
      {"measurement": "inhibition at 1 µM", "setting": "[7]; 1000 nM", "result": 6, "unit": "%"},
      {"measurement": "inhibition at 0.01 µM", "setting": "[8]; 10 nM", "result": -7, "unit": "%"},
      {"measurement": "inhibition at 0.1 µM", "setting": "[8]; 100 nM", "result": 0, "unit": "%"},
      {"measurement": "inhibition at 1 µM", "setting": "[8]; 1000 nM", "result": 6, "unit": "%"},
      {"measurement": "inhibition at 0.01 µM", "setting": "[9]; 10 nM", "result": 2, "unit": "%"},
      {"measurement": "inhibition at 0.1 µM", "setting": "[9]; 100 nM", "result": 4, "unit": "%"},
      {"measurement": "inhibition at 1 µM", "setting": "[9]; 1000 nM", "result": -3, "unit": "%"}
    ]}
  ]
}
